We go through 19 compounds from patent US12486268B2 (TRANSNEURAL THERAPEUTICS, INC., priority 2022, dated 2025).

Structures can show the parent of a compound that is named as a salt. Where only a bound is given, the exact number is not on record here.

The target in the experiment is T1, human serotonin 2A receptors (5-HT2AR) (Homo sapiens, UniProt P28223).
T1 construct: expressed in transfected cells; host or cells: HEK 293 cells
Nature of the experiment: IP1 accumulation assay (HTRF). The experiment is classed as cell-based. More on the design: key to h5-HT2A EC50: A=<100; B=100 to 1000; C=>1000 to 10000; D=>10000; E=inactive. The following applies: HEK 293 cells expressing human 5-HT2AR; for Emax: HEK293, IP1 production, relative to 5-HT, read-out: h5-HT2A Emax; for EC50 / h5-HT2A EC50: IP1 production (proxy for Gq activation); for EC50: read-out: h5-HT2A EC50. The procedure: The functional activity of disclosed compounds is measured using an IP1 (inositol monophosphate) accumulation assay. The effects of disclosed compounds on IP1 production (a proxy for Gq activation) was measured in HEK 293 cells expressing human serotonin 2A receptors (5-HT2AR) using a Homogeneous Time Resolved Fluorescence (HTRF) assay. Standard protocols are followed. Briefly, a cell suspension and test compound/s is incubated in a standard buffer. Following incubation, the cells are lysed, and the fluorescence acceptor and donor are added. After incubation the fluorescence transfer is measured, and data is analyzed using GraphPad Prism to generate concentration response curves.
A general note: In TR-FRET formats the signal depends on donor and acceptor labels being close together.

T1 sequence (P28223 whole entry): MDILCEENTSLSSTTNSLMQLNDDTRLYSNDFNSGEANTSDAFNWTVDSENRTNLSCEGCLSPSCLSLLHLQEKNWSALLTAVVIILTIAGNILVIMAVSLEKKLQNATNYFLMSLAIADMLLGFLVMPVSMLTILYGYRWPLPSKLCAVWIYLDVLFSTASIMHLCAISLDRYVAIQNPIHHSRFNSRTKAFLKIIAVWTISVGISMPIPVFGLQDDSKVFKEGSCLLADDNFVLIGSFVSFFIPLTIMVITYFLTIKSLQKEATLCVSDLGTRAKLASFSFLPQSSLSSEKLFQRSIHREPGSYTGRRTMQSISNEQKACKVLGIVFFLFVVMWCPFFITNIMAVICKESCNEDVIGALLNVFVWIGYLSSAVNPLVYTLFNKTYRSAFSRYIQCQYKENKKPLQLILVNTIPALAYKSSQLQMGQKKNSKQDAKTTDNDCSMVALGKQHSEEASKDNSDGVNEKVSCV

Usually Emax stands for the maximal effect, on the per cent scale that the assay sets. Usually EC50 stands for the concentration that produces a half-maximal response. Regarding `C1=C(c2nsc3ccccc23)CNCC1` [Compound 160, 3-(1,2,5,6-tetrahydropyridin-3-yl)benzo[d]isothiazole], the maximal effect (Emax) is greater than 90% and the EC50 is less than 0.1 µM. The corresponding values for `CCN1CC(c2c[nH]c3ncccc23)=CC2(CC2)C1` [Compound 144, 3-(5-ethyl-5-azaspiro[2.5]oct-7-en-7-yl)-1H-pyrrolo[2,3-b]pyridine] are 75 to 90% and 1 to 10 µM. For the compound `C1=C(c2c[nH]c3ncccc23)C2CC1CN2` (stereo not drawn) [Compound 134], the maximal response (Emax) is less than 50% and the “h5-HT2A EC50” value is recorded as “E”.

In the case of `CC1C=C(c2c[nH]c3ncccc23)CN(CC(F)(F)C(F)(F)F)C1` (single isomer, unassigned) [105 Isomer 2], the Emax was less than 50% and the “h5-HT2A EC50” value is on record as “E”.

For `CC1C=C(c2c[nH]c3ncccc23)CN(CC(F)(F)C(F)(F)F)C1` (single isomer, unassigned) [105 Isomer 1], the “h5-HT2A EC50” value was “E”. Regarding `N#CC1C=C(c2c[nH]c3ncccc23)CNC1` (stereo not drawn) [Compound 132, 5-(1H-pyrrolo[2,3-b]pyridin-3-yl)-1,2,3,6-tetrahydropyridine-3-carbonitrile], the EC50 is greater than 10 µM. Take `CC1(C)NCCC=C1c1c[nH]c2ncccc12` [Compound 149, 3-(2,2-dimethyl-1,2,5,6-tetrahydropyridin-3-yl)-1H-pyrrolo[2,3-b]pyridine]: the maximal effect (Emax) was less than 50% and the “h5-HT2A EC50” value is “E”. As for `CN1CC(c2c[nH]c3ncccc23)=CC(C(F)(F)F)C1` (stereo not drawn) [Compound 102, 3-(1-methyl-5-(trifluoromethyl)-1,2,5,6-tetrahydropyridin-3-yl)-1H-pyrrolo[2,3-b]pyridine], the EC50 was greater than 10 µM. In the case of `C1=C(c2c[nH]c3ncccc23)CNCC12CCC2` [Compound 145, 3-(6-azaspiro[3.5]non-8-en-8-yl)-1H-pyrrolo[2,3-b]pyridine], the Emax was less than 50% and the EC50 was 1 to 10 µM. Regarding `CN1CC(c2c[nH]c3ncccc23)=CC(C)(C)C1` [Compound 108, 3-(1,5,5-trimethyl-1,2,5,6-tetrahydropyridin-3-yl)-1H-pyrrolo[2,3-b]pyridine hydrochloride], the EC50 was greater than 10 µM. In the case of `FC(F)(F)C1C=C(c2c[nH]c3ncccc23)CNC1` (stereo not drawn) [Compound 101, 3-(5-(trifluoromethyl)-1,2,5,6-tetrahydropyridin-3-yl)-1H-pyrrolo[2,3-b]pyridine], the maximal effect (Emax) is 75 to 90% and the half-maximal effective concentration (EC50) lay within 1 to 10 µM. Take `CN1CC(c2c[nH]c3ncccc23)=CC2(CCC2)C1` [Compound 146, 3-(6-methyl-6-azaspiro[3.5]non-8-en-8-yl)-1H-pyrrolo[2,3-b]pyridine dihydrochloride]: the maximal effect (Emax) was 50 to 75% and the concentration giving a half-maximal response (EC50) was 0.1 to 1 µM. As to `C1=C(c2c[nH]c3ncccc23)C2(CC2)NCC1` [Compound 147, 3-(4-azaspiro[2.5]oct-7-en-8-yl)-1H-pyrrolo[2,3-b]pyridine hydrochloride], the Emax is greater than 90% and the EC50 lay within 1 to 10 µM. With `CC1C=C(c2c[nH]c3ncccc23)CN(CC(C)(F)F)C1` (single isomer, unassigned) [103 Isomer 2], the “h5-HT2A EC50” value is on record as “E”.

As for `CN1CCC2CC2(c2c[nH]c3ncccc23)C1` (stereo not drawn) [Compound 106, 3-(3-methyl-3-azabicyclo[4.1.0]heptan-1-yl)-1H-pyrrolo[2,3-b]pyridine], the EC50 was greater than 10 µM. Take `CC1(C)CC=C(c2c[nH]c3ncccc23)CN1` [Compound 148, 3-(6,6-dimethyl-1,2,5,6-tetrahydropyridin-3-yl)-1H-pyrrolo[2,3-b]pyridine hydrochloride]: the Emax is less than 50% and the “h5-HT2A EC50” value is recorded as “E”. On to `CC1(C)C=C(c2c[nH]c3ncccc23)CNC1` [Compound 107, 3-(5,5-dimethyl-1,2,5,6-tetrahydropyridin-3-yl)-1H-pyrrolo[2,3-b]pyridine hydrochloride], for which the EC50 is greater than 10 µM. `CN1C2CC=C(c3c[nH]c4ncccc34)C1CC2` (stereo not drawn) [Compound 141, 3-(8-methyl-8-azabicyclo[3.2.1]oct-2-en-2-yl)-1H-pyrrolo[2,3-b]pyridine]: the EC50 is greater than 10 µM. Regarding `CC1C=C(c2c[nH]c3ncccc23)CN(CC(C)(F)F)C1` (single isomer, unassigned) [103 Isomer 1], the Emax is less than 50% and the “h5-HT2A EC50” value is reported as “E”.
